Here are results for 3 compounds from ChEMBL document CHEMBL1157806, “1-(3-Deoxy-3-fluoro-beta-d-glucopyranosyl) pyrimidine derivatives as inhibitors of glycogen phosphorylase b: Kinetic, crystallographic and modelling studies” (Bioorg Med Chem, 2010).

Data set [1] is described as follows: Dissociation constant, pKa of the compound. The class given is physicochemical.
For data set [2], the target named is T1, Glycogen phosphorylase, muscle form (Oryctolagus cuniculus, UniProt P00489).
T1 sequence (P00489 whole entry): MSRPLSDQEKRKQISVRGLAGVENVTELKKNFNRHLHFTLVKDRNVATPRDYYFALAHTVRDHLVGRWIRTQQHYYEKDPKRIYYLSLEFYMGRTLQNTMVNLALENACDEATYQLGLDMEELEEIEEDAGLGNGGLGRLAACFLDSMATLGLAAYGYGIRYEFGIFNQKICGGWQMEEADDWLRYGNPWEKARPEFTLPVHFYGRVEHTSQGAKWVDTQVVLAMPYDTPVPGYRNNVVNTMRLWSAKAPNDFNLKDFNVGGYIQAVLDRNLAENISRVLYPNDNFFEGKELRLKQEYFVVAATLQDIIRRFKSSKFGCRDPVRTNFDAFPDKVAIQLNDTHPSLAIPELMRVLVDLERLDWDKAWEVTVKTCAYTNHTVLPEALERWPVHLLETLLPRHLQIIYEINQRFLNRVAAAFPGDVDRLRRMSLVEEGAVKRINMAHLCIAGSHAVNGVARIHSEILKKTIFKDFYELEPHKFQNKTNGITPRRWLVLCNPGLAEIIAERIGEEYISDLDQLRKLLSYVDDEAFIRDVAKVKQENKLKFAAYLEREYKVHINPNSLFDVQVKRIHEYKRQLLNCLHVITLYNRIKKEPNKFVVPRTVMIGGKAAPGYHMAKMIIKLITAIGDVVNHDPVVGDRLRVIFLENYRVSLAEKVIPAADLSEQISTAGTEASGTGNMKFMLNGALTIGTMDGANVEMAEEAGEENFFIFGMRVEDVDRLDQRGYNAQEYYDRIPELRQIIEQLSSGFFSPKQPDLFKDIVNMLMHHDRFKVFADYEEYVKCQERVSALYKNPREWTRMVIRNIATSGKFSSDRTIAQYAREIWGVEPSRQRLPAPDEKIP
Briefly: Inhibition of rabbit muscle glycogen phosphorylase inactive form b.

The term pKa denotes the pH at which an ionisable group is half protonated. The low end stands for a stronger acid or weaker base, the high end for a weaker acid or stronger base. In data set [1], `O=c1[nH]c(=O)n([C@@H]2O[C@H](CO)C(O)[C@H](F)C2O)cc1F` (stereo partly drawn) showed a pKa of 7.5. As a reminder, the Ki is a dissociation constant, usually derived from enzyme kinetics or from competition with a known ligand. Higher therefore signals a looser hold on the target. Regarding `O=c1ccn([C@@H]2O[C@H](CO)[C@@H](O)[C@H](O)[C@H]2O)c(=O)[nH]1`, in data set [2], the inhibition constant (Ki) was found to be 6.1 µM.

In the case of `Nc1ccn([C@@H]2O[C@H](CO)[C@@H](O)[C@H](O)[C@H]2O)c(=O)n1`, the Ki in data set [2] worked out at 7.7 µM.
